Assay results from ChEMBL document CHEMBL4419167, “Compositions and methods for treating respiratory injury or disease” (2018).
Active and inactive are the calls of the source. No cut-off for these calls is given here.

Tested on: Mus musculus
Assay: Suppression of lung injury in mouse model of influenza A virus H1N1 infection-induced lung injury assessed as decrease in lung resistance at 30 ug/ml dosed via drinking water
Assay type: functional, organism-based

c1ccc(-c2ccc(CNCCNCc3ccc(-c4ccccn4)cc3)cc2)nc1
Activity: Active
